From ChEMBL document CHEMBL3817808, “Enlarging the chemical space of anti-leishmanials: a structureactivity relationship study of peptoids against Leishmania mexicana, a causative agent of cutaneous leishmaniasis” (Medchemcomm, 2016) come the findings set out here.

In test [1] the test system is Leishmania mexicana. Description: Antileishmanial activity against Leishmania mexicana MNYC/BZ/62/M379 promastigotes assessed as parasite viability measured after 1 hr by alamarBlue staining based fluorescence analysis. The format is functional. Particulars: MNYC/BZ/62/M379, 1 h, read-out: ED50 (the source's name). (In general: The colour change of resazurin is a common sign of viable cells or microbes.)

The subject of test [2] is Leishmania mexicana. Description: Antileishmanial activity against axenic amastigote form of Leishmania mexicana MNYC/BZ/62/M379 assessed as parasite viability measured after 1 hr by alamarBlue staining based fluorescence analysis. The format is functional. As to conditions: MNYC/BZ/62/M379, 1 h, read-out: ED50 (the source's name).

Each structure is given as a SMILES string. Non-standard residues stand in square brackets, D forms with d. Residues, ends and D or L forms follow the SMILES beside them. Gly(Nα-4-Cl-benzyl) = O=C(O)CNCc1ccc(Cl)cc1; N(4-F-Bzl)Gly = O=C(O)CNCc1ccc(F)cc1; Gly(N-(CH2)6NH2) = NCCCCCCNCC(=O)O; Gly(N-2-aminoethyl) = NCCNCC(=O)O; Nspe = C[C@H](NCC(=O)O)c1ccccc1; Nphe = O=C(O)CNCc1ccccc1; Nlys = NCCCCNCC(=O)O

Consider `COc1ccc(CN(CC(N)=O)C(=O)CN(Cc2ccc(OC)cc2)C(=O)CN(CCCCN)C(=O)CN(Cc2ccc(OC)cc2)C(=O)CN(Cc2ccc(OC)cc2)C(=O)CNCCCCN)cc1`, for which the EC50 in test [1] and in test [2] was above 100 µM each time.
For `C[C@@H](c1ccccc1)N(CC(N)=O)C(=O)CN(C(=O)CN(CCCCCCN)C(=O)CN(C(=O)CN(C(=O)CNCCCCCCN)[C@@H](C)c1ccccc1)[C@@H](C)c1ccccc1)[C@@H](C)c1ccccc1`, the EC50 in test [1] and in test [2] was above 100 µM throughout.
Take `COc1ccc(CN(CC(N)=O)C(=O)CN(Cc2ccc(OC)cc2)C(=O)CN(CCCCN)C(=O)CN(Cc2ccc(OC)cc2)C(=O)CN(Cc2ccc(OC)cc2)C(=O)CN(CCCCN)C(=O)CN(Cc2ccc(OC)cc2)C(=O)CN(Cc2ccc(OC)cc2)C(=O)CNCCCCN)cc1`: the EC50 in test [1] and in test [2] was above 100 µM each time.
In the case of `C[C@@H](c1ccccc1)N(CC(N)=O)C(=O)CN(C(=O)CN(CCCCN)C(=O)CN(Cc1ccc(F)cc1)C(=O)CN(Cc1ccc(F)cc1)C(=O)CNCCCCN)[C@@H](C)c1ccccc1`, the EC50 in test [1] and in test [2] was above 100 µM each time.
Consider `NCCCCNCC(=O)N(CC(=O)N(CC(=O)N(CCCCN)CC(=O)N(CC(=O)N(CC(=O)N(CCCCN)CC(=O)N(CC(=O)N(CC(N)=O)Cc1cccc(F)c1)Cc1cccc(F)c1)Cc1cccc(F)c1)Cc1cccc(F)c1)Cc1cccc(F)c1)Cc1cccc(F)c1`, for which the EC50 is 17 µM in test [1] and above 100 µM in test [2].
As to `COc1ccc(CN(CC(N)=O)C(=O)CN(Cc2ccc(OC)cc2)C(=O)CN(CCCCN)C(=O)CN(Cc2ccc(OC)cc2)C(=O)CN(Cc2ccc(OC)cc2)C(=O)CN(CCCCN)C(=O)CN(Cc2ccc(OC)cc2)C(=O)CN(Cc2ccc(OC)cc2)C(=O)CN(CCCCN)C(=O)CN(Cc2ccc(OC)cc2)C(=O)CN(Cc2ccc(OC)cc2)C(=O)CNCCCCN)cc1`, the EC50 in test [1] was 42 µM; in test [2], above 100 µM.
On to `NCCCCNCC(=O)N(CC(=O)N(CC(=O)N(CCCCN)CC(=O)N(CC(=O)N(CC(=O)N(CCCCN)CC(=O)N(CC(=O)N(CC(N)=O)Cc1ccccc1)Cc1ccccc1)Cc1ccccc1)Cc1ccccc1)Cc1ccccc1)Cc1ccccc1`, for which the EC50 in test [1] and in test [2] was above 100 µM in each case.
Take `C[C@@H](c1ccccc1)N(CC(N)=O)C(=O)CN(C(=O)CN(CCN)C(=O)CN(C(=O)CN(C(=O)CNCCN)[C@@H](C)c1ccccc1)[C@@H](C)c1ccccc1)[C@@H](C)c1ccccc1`: the EC50 in test [1] and in test [2] was above 100 µM each time.
For `C[C@@H](c1ccccc1)N(CC(N)=O)C(=O)CN(Cc1ccc(F)cc1)C(=O)CN(CCCCN)C(=O)CN(C(=O)CN(Cc1ccc(F)cc1)C(=O)CNCCCCN)[C@@H](C)c1ccccc1`, the EC50 in test [1] and in test [2] was above 100 µM in each case.
Regarding `NCCCCNCC(=O)N(CC(=O)N(CC(=O)N(CCCCN)CC(=O)N(CC(=O)N(CC(=O)N(CCCCN)CC(=O)N(CC(=O)N(CC(=O)N(CCCCN)CC(=O)N(CC(=O)N(CC(N)=O)Cc1cccc(F)c1)Cc1cccc(F)c1)Cc1cccc(F)c1)Cc1cccc(F)c1)Cc1cccc(F)c1)Cc1cccc(F)c1)Cc1cccc(F)c1)Cc1cccc(F)c1`, the results for the EC50 in test [1] and in test [2] were 14 µM and 69 µM, respectively.
Taken in the same sequence, the figures for `NCCCCNCC(=O)N(CC(=O)N(CC(=O)N(CCCCN)CC(=O)N(CC(=O)N(CC(N)=O)Cc1cccc(F)c1)Cc1cccc(F)c1)Cc1cccc(F)c1)Cc1cccc(F)c1` were above 100 µM and above 100 µM.
As to `NCCNCC(=O)N(CC(=O)N(CC(=O)N(CCN)CC(=O)N(CC(=O)N(CC(N)=O)Cc1ccccc1)Cc1ccccc1)Cc1ccccc1)Cc1ccccc1` (H-[Gly(N-2-aminoethyl)][Nphe][Nphe][Gly(N-2-aminoethyl)][Nphe][Nphe]-NH2), the EC50 in test [1] and in test [2] was above 100 µM in each case.
On to `NCCNCC(=O)N(CC(=O)N(CC(=O)N(CCN)CC(=O)N(CC(=O)N(CC(=O)N(CCN)CC(=O)N(CC(=O)N(CC(N)=O)Cc1ccccc1)Cc1ccccc1)Cc1ccccc1)Cc1ccccc1)Cc1ccccc1)Cc1ccccc1` (H-[Gly(N-2-aminoethyl)][Nphe][Nphe][Gly(N-2-aminoethyl)][Nphe][Nphe][Gly(N-2-aminoethyl)][Nphe][Nphe]-NH2), for which the EC50 in test [1] and in test [2] was above 100 µM throughout.
With `NCCCCCCNCC(=O)N(CC(=O)N(CC(=O)N(CCCCCCN)CC(=O)N(CC(=O)N(CC(N)=O)Cc1ccccc1)Cc1ccccc1)Cc1ccccc1)Cc1ccccc1` (H-[Gly(N-(CH2)6NH2)][Nphe][Nphe][Gly(N-(CH2)6NH2)][Nphe][Nphe]-NH2), the EC50 in test [1] and in test [2] was above 100 µM in each case.
Turning to `NCCCCCCNCC(=O)N(CC(=O)N(CC(=O)N(CCCCCCN)CC(=O)N(CC(=O)N(CC(=O)N(CCCCCCN)CC(=O)N(CC(=O)N(CC(N)=O)Cc1ccccc1)Cc1ccccc1)Cc1ccccc1)Cc1ccccc1)Cc1ccccc1)Cc1ccccc1` (H-[Gly(N-(CH2)6NH2)][Nphe][Nphe][Gly(N-(CH2)6NH2)][Nphe][Nphe][Gly(N-(CH2)6NH2)][Nphe][Nphe]-NH2), the EC50 in test [1] and in test [2] was above 100 µM in each case.
With `NCCCCCCNCC(=O)N(CC(=O)N(CC(=O)N(CCCCCCN)CC(=O)N(CC(=O)N(CC(=O)N(CCCCCCN)CC(=O)N(CC(=O)N(CC(=O)N(CCCCCCN)CC(=O)N(CC(=O)N(CC(N)=O)Cc1ccccc1)Cc1ccccc1)Cc1ccccc1)Cc1ccccc1)Cc1ccccc1)Cc1ccccc1)Cc1ccccc1)Cc1ccccc1` (H-[Gly(N-(CH2)6NH2)][Nphe][Nphe][Gly(N-(CH2)6NH2)][Nphe][Nphe][Gly(N-(CH2)6NH2)][Nphe][Nphe][Gly(N-(CH2)6NH2)][Nphe][Nphe]-NH2), the EC50 was 21 µM in test [1] and above 100 µM in test [2].
On to `C[C@@H](c1ccccc1)N(CC(N)=O)C(=O)CN(C(=O)CN(CCCCCCN)C(=O)CN(C(=O)CN(C(=O)CN(CCCCCCN)C(=O)CN(C(=O)CN(C(=O)CNCCCCCCN)[C@@H](C)c1ccccc1)[C@@H](C)c1ccccc1)[C@@H](C)c1ccccc1)[C@@H](C)c1ccccc1)[C@@H](C)c1ccccc1` (H-[Gly(N-(CH2)6NH2)][Nspe][Nspe][Gly(N-(CH2)6NH2)][Nspe][Nspe][Gly(N-(CH2)6NH2)][Nspe][Nspe]-NH2), for which the EC50 in test [1] is 25 µM; in test [2], above 100 µM.
On to `C[C@@H](c1ccccc1)N(CC(N)=O)C(=O)CN(C(=O)CN(CCCCCCN)C(=O)CN(C(=O)CN(C(=O)CN(CCCCCCN)C(=O)CN(C(=O)CN(C(=O)CN(CCCCCCN)C(=O)CN(C(=O)CN(C(=O)CNCCCCCCN)[C@@H](C)c1ccccc1)[C@@H](C)c1ccccc1)[C@@H](C)c1ccccc1)[C@@H](C)c1ccccc1)[C@@H](C)c1ccccc1)[C@@H](C)c1ccccc1)[C@@H](C)c1ccccc1` (H-[Gly(N-(CH2)6NH2)][Nspe][Nspe][Gly(N-(CH2)6NH2)][Nspe][Nspe][Gly(N-(CH2)6NH2)][Nspe][Nspe][Gly(N-(CH2)6NH2)][Nspe][Nspe]-NH2), for which the EC50 in test [1] was 11 µM; in test [2] it was above 100 µM.
For `NCCCCNCC(=O)N(CC(=O)N(CC(=O)N(CCCCN)CC(=O)N(CC(=O)N(CC(N)=O)Cc1ccc(Cl)cc1)Cc1ccc(Cl)cc1)Cc1ccc(Cl)cc1)Cc1ccc(Cl)cc1` (H-[Nlys][Gly(Nα-4-Cl-benzyl)][Gly(Nα-4-Cl-benzyl)][Nlys][Gly(Nα-4-Cl-benzyl)][Gly(Nα-4-Cl-benzyl)]-NH2), the values for the EC50 in test [1] and in test [2] were 29 µM and above 100 µM, respectively.
Taken in the same sequence, the figures for `NCCCCNCC(=O)N(CC(=O)N(CC(=O)N(CCCCN)CC(=O)N(CC(=O)N(CC(=O)N(CCCCN)CC(=O)N(CC(=O)N(CC(N)=O)Cc1ccc(Cl)cc1)Cc1ccc(Cl)cc1)Cc1ccc(Cl)cc1)Cc1ccc(Cl)cc1)Cc1ccc(Cl)cc1)Cc1ccc(Cl)cc1` (H-[Nlys][Gly(Nα-4-Cl-benzyl)][Gly(Nα-4-Cl-benzyl)][Nlys][Gly(Nα-4-Cl-benzyl)][Gly(Nα-4-Cl-benzyl)][Nlys][Gly(Nα-4-Cl-benzyl)][Gly(Nα-4-Cl-benzyl)]-NH2) were 22 µM and 85 µM.
In the case of `NCCCCNCC(=O)N(CC(=O)N(CC(=O)N(CCCCN)CC(=O)N(CC(=O)N(CC(=O)N(CCCCN)CC(=O)N(CC(=O)N(CC(=O)N(CCCCN)CC(=O)N(CC(=O)N(CC(N)=O)Cc1ccc(Cl)cc1)Cc1ccc(Cl)cc1)Cc1ccc(Cl)cc1)Cc1ccc(Cl)cc1)Cc1ccc(Cl)cc1)Cc1ccc(Cl)cc1)Cc1ccc(Cl)cc1)Cc1ccc(Cl)cc1` (H-[Nlys][Gly(Nα-4-Cl-benzyl)][Gly(Nα-4-Cl-benzyl)][Nlys][Gly(Nα-4-Cl-benzyl)][Gly(Nα-4-Cl-benzyl)][Nlys][Gly(Nα-4-Cl-benzyl)][Gly(Nα-4-Cl-benzyl)][Nlys][Gly(Nα-4-Cl-benzyl)][Gly(Nα-4-Cl-benzyl)]-NH2), the results for the EC50 in test [1] and in test [2] were 28 µM and 44 µM, respectively.
Take `NCCCCNCC(=O)N(CC(=O)N(CC(=O)N(CCCCN)CC(=O)N(CC(=O)N(CC(N)=O)Cc1ccc(F)cc1)Cc1ccc(F)cc1)Cc1ccc(F)cc1)Cc1ccc(F)cc1` (H-[Nlys][N(4-F-Bzl)Gly][N(4-F-Bzl)Gly][Nlys][N(4-F-Bzl)Gly][N(4-F-Bzl)Gly]-NH2): the EC50 in test [1] and in test [2] was above 100 µM throughout.
Take `NCCCCNCC(=O)N(CC(=O)N(CC(=O)N(CCCCN)CC(=O)N(CC(=O)N(CC(=O)N(CCCCN)CC(=O)N(CC(=O)N(CC(N)=O)Cc1ccc(F)cc1)Cc1ccc(F)cc1)Cc1ccc(F)cc1)Cc1ccc(F)cc1)Cc1ccc(F)cc1)Cc1ccc(F)cc1` (H-[Nlys][N(4-F-Bzl)Gly][N(4-F-Bzl)Gly][Nlys][N(4-F-Bzl)Gly][N(4-F-Bzl)Gly][Nlys][N(4-F-Bzl)Gly][N(4-F-Bzl)Gly]-NH2): the EC50 in test [1] was 19 µM; in test [2] it was above 100 µM.
With `NCCCCNCC(=O)N(CC(=O)N(CC(=O)N(CCCCN)CC(=O)N(CC(=O)N(CC(=O)N(CCCCN)CC(=O)N(CC(=O)N(CC(=O)N(CCCCN)CC(=O)N(CC(=O)N(CC(N)=O)Cc1ccc(F)cc1)Cc1ccc(F)cc1)Cc1ccc(F)cc1)Cc1ccc(F)cc1)Cc1ccc(F)cc1)Cc1ccc(F)cc1)Cc1ccc(F)cc1)Cc1ccc(F)cc1` (H-[Nlys][N(4-F-Bzl)Gly][N(4-F-Bzl)Gly][Nlys][N(4-F-Bzl)Gly][N(4-F-Bzl)Gly][Nlys][N(4-F-Bzl)Gly][N(4-F-Bzl)Gly][Nlys][N(4-F-Bzl)Gly][N(4-F-Bzl)Gly]-NH2), the EC50 is 15 µM in test [1] and 75 µM in test [2].
